From ChEMBL document CHEMBL5291721, “A preclinical secondary pharmacology resource illuminates target-adverse drug reaction associations of marketed drugs” (Nat Commun, 2023)

Experiments:
[1] = target: T1, Gastric inhibitory polypeptide receptor (Homo sapiens, UniProt P48546)
T1 sequence (P48546 whole entry): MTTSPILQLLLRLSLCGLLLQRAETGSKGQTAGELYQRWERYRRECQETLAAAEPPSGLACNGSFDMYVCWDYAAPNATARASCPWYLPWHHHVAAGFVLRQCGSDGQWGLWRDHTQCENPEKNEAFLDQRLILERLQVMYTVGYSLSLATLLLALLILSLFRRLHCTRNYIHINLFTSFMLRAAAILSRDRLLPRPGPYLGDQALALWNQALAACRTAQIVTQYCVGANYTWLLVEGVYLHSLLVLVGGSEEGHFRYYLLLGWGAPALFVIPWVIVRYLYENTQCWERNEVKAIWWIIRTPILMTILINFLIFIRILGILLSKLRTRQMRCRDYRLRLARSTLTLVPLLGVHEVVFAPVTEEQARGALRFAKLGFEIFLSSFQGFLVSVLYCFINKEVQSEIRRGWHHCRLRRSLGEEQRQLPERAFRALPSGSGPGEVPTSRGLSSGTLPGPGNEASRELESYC

[2] = target: T2, Neuropeptide Y receptor type 2 (Homo sapiens, UniProt P49146)
T2 sequence (P49146 whole entry): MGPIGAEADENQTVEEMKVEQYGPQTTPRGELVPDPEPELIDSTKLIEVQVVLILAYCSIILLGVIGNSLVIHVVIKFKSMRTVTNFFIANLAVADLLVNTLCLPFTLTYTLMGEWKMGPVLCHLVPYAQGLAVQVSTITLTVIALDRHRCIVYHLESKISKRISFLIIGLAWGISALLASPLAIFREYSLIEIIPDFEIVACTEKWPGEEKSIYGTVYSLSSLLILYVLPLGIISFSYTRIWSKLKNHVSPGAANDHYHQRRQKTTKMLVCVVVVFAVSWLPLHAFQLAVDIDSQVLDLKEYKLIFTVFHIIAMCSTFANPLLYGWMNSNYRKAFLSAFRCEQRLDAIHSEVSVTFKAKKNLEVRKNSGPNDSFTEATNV

[3] = target: Neurotensin receptor type 1 (Homo sapiens, UniProt P30989)
Progesterone receptor = target: T3, Progesterone receptor (Homo sapiens, UniProt P06401)
T3 sequence (P06401 whole entry): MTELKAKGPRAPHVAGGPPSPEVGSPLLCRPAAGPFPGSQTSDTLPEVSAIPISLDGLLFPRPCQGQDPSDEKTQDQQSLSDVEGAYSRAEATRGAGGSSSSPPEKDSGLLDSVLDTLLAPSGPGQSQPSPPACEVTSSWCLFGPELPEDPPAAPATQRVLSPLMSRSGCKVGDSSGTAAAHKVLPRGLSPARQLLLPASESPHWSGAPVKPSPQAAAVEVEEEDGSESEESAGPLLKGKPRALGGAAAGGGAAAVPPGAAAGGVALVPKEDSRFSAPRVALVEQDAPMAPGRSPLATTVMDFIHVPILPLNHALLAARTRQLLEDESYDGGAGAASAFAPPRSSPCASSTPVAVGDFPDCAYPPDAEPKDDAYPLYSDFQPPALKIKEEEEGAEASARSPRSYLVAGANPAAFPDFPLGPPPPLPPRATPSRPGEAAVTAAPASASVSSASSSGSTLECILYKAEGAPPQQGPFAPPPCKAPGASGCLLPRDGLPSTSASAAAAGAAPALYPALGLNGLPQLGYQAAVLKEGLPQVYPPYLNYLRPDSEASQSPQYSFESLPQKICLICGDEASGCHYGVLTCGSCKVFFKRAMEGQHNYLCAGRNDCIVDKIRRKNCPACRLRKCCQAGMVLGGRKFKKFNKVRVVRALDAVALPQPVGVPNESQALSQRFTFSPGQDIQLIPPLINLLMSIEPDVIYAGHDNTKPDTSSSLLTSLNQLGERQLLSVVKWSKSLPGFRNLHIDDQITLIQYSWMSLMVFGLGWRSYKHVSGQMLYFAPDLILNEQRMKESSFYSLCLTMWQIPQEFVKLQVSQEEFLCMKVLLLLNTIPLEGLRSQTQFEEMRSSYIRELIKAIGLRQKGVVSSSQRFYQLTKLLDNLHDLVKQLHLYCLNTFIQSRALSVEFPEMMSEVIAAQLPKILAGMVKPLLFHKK

[4] = target: Gamma-aminobutyric acid receptor subunit alpha-1 (Rattus norvegicus, UniProt P62813)
Androgen receptor = target: T4, Androgen receptor (Rattus norvegicus, UniProt P15207); assay type: functional
T4 sequence (P15207 whole entry): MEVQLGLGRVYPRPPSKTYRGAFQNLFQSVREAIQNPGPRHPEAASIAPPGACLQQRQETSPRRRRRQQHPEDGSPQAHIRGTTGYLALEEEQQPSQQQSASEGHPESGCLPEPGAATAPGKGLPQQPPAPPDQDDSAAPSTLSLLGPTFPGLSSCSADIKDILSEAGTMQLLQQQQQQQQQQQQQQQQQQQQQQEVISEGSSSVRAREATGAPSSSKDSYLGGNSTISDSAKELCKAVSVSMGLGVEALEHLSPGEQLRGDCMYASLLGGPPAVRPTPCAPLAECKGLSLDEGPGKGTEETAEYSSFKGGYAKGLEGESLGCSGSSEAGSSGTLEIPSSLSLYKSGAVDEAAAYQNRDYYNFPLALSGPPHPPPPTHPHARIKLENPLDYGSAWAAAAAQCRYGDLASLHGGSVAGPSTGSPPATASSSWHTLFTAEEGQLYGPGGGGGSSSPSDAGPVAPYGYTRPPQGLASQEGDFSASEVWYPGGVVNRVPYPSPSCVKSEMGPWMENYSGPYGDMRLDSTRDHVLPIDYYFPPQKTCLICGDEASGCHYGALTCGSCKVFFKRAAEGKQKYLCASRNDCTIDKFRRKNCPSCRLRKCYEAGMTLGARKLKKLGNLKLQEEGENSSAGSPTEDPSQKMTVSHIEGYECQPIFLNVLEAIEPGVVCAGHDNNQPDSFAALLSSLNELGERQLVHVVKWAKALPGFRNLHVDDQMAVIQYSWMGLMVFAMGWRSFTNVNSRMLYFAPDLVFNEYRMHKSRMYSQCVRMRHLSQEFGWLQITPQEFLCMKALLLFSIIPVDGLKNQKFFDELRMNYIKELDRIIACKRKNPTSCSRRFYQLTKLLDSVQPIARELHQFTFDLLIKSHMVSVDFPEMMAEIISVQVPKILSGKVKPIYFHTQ

[5] = target: 5-hydroxytryptamine receptor 2B (Homo sapiens, UniProt P41595)
Further: assay procedure not described here.

Sequence of Neurotensin receptor type 1 (P30989 whole entry): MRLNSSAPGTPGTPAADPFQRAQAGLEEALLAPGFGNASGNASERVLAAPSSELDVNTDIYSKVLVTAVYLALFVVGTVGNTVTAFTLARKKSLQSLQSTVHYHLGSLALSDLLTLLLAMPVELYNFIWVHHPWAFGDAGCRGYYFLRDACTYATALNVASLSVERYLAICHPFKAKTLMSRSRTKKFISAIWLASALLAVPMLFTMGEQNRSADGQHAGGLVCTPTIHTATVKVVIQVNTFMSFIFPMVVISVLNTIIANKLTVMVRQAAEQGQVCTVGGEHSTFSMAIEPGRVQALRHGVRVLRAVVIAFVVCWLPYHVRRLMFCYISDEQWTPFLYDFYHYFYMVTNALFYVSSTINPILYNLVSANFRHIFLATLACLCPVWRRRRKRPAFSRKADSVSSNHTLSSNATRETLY
Sequence of 5-hydroxytryptamine receptor 2B (P41595 whole entry): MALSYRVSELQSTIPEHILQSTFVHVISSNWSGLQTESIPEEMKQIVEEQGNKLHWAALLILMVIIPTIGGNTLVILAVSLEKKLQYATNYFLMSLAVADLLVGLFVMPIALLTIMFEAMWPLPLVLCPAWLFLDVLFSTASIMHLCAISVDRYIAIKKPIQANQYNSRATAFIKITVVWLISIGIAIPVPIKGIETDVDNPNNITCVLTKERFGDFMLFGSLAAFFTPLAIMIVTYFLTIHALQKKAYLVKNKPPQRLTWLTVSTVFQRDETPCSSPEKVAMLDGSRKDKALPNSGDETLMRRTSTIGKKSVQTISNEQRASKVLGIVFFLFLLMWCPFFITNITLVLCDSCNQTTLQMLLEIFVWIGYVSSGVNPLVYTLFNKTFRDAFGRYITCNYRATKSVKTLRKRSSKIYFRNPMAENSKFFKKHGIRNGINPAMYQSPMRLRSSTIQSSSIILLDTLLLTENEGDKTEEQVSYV
Sequence of Gamma-aminobutyric acid receptor subunit alpha-1 (P62813 whole entry): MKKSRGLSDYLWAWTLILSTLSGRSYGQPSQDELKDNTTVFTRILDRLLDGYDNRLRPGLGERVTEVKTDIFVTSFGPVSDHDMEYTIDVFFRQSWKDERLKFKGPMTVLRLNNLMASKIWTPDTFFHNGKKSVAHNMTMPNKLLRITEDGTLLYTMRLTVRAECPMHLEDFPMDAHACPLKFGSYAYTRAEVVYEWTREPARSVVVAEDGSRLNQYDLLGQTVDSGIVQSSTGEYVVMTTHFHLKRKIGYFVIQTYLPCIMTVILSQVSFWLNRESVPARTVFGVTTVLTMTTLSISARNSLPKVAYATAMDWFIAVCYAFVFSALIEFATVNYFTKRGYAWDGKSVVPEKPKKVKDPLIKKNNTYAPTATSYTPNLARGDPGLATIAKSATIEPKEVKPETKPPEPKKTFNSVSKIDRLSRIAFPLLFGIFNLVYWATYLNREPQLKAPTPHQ

SMILES | AC50 [4] | AC50 (Androgen receptor) | also measured
CC12CC3CC(C)(C1)CC(N)(C3)C2 [MEMANTINE] |  |  | AC50 [1]: > 30 µM; AC50 [2]: > 30 µM; AC50 [3]: > 30 µM; AC50 (Progesterone receptor): > 30 µM
Cc1cc(NC(=O)C2=C(O)c3ccccc3S(=O)(=O)N2C)no1 [ISOXICAM] | > 30 µM |  | 
O=[N+]([O-])c1ccc(O)c2ncccc12 [NITROXOLINE] | > 30 µM |  | 
COCC1=C(C(=O)O)N2C(=O)[C@@H](NC(=O)/C(=N\OC)c3csc(N)n3)[C@H]2SC1 [CEFPODOXIME] |  | > 30 µM | 
Oc1ccc2c(c1)CC[C@H](c1ccccc1)[C@@H]2c1ccc(OCCN2CCCC2)cc1 [LASOFOXIFENE] |  | > 30 µM | AC50 [5]: 0.272 µM
Cc1cc(N)c2ccccc2[n+]1CCCCCCCCCC[n+]1c(C)cc(N)c2ccccc21 | 24.6 µM |  | 
CCCCC(=O)O[C@]1(C(=O)CO)[C@@H](C)C[C@H]2[C@@H]3CCC4=CC(=O)C=C[C@]4(C)[C@@]3(F)[C@@H](O)C[C@@]21C [BETAMETHASONE VALERATE] |  |  | AC50 (Progesterone receptor): 0.13 µM
C[C@]12CC[C@@H]3c4ccc(O)cc4C[C@@H](CCCCCCCCC[S+]([O-])CCCC(F)(F)C(F)(F)F)[C@H]3[C@@H]1CC[C@@H]2O (stereo partly drawn) [FULVESTRANT] |  | > 30 µM | 
COc1cc2c(cc1OC)CC(=O)N(CCCN(C)C[C@H]1Cc3cc(OC)c(OC)cc31)CC2 [IVABRADINE] | > 30 µM |  | 
CC[C@@H]([C@H](C)O)n1ncn(-c2ccc(N3CCN(c4ccc(OC[C@@H]5CO[C@@](Cn6cncn6)(c6ccc(F)cc6F)C5)cc4)CC3)cc2)c1=O [POSACONAZOLE] | > 30 µM |  | 
CN(C)CCCNc1c2ccccc2nc2cccc([N+](=O)[O-])c12 [NITRACRINE] |  | > 30 µM | AC50 [5]: 0.2 µM
C=CCNc1nc(NCC=C)nc(N2CCN(C(c3ccc(F)cc3)c3ccc(F)cc3)CC2)n1 [ALMITRINE] |  | > 30 µM | 
Clc1ccc2c(N3CCN(CCCN4CCN(c5ccnc6cc(Cl)ccc56)CC4)CC3)ccnc2c1 [PIPERAQUINE] |  | > 30 µM | 
CC(C)COCC(CN(Cc1ccccc1)c1ccccc1)N1CCCC1 (stereo not drawn) [BEPRIDIL] |  |  | AC50 [1]: > 30 µM; AC50 [2]: > 30 µM; AC50 [3]: > 30 µM; AC50 (Progesterone receptor): > 30 µM
CN1CCC(=C2c3ccccc3CCc3cccnc32)CC1 [AZATADINE] |  |  | AC50 (Progesterone receptor): > 30 µM
CN(C)CCOC(c1ccccc1)c1ccc(Br)cc1 (stereo not drawn) [BROMODIPHENHYDRAMINE] | > 30 µM |  | 
COc1cc(N2CCC(N3CCN(C)CC3)CC2)ccc1Nc1ncc(Cl)c(Nc2ccccc2P(C)(C)=O)n1 [BRIGATINIB] | > 30 µM |  | 
CCC(C)C1(CC)C(=O)NC(=O)NC1=O (stereo not drawn) [BUTABARBITAL] |  | > 30 µM | 
CCC(=O)O[C@]1(C(=O)SCF)[C@H](C)C[C@H]2[C@@H]3C[C@H](F)C4=CC(=O)C=C[C@]4(C)[C@@]3(F)[C@@H](O)C[C@@]21C [FLUTICASONE PROPIONATE] | > 30 µM |  | AC50 [1]: > 30 µM; AC50 [5]: > 10 µM; AC50 [2]: > 30 µM; AC50 [3]: > 30 µM
Cc1cccc(N2CC(CO)OC2=O)c1 (stereo not drawn) [TOLOXATONE] |  | > 30 µM | 
CC(=O)O[C@]1(C(C)=O)CC[C@H]2[C@@H]3C=C(Cl)C4=CC(=O)CC[C@]4(C)[C@H]3CC[C@@]21C [CHLORMADINONE ACETATE] | > 30 µM |  | 
